Earlier results in PubChem BioAssay AID1259409 (Chemical Carcinogenesis Research Information System (CCRIS), 2018).
Where a SMILES comes first, the peptide text is derived from it. [ ]: non-standard residue; d: D form. The star is where a group is joined. Sta = CC(C)C[C@H](N)[C@@H](O)CC(=O)O; Isovaleryl = CC(C)CC(=O)*

Tested on: rodent chemically induced tumor inhibition, incidence and multiplicity
Test: CCRIS tumor inhibitor studies

O=C1N[C@H](C(=O)O)CS1
tumour outcome (control, treated, inhibition, significance) (Carcinogen: DIETHYLNITROSAMINE, 55-18-5, Dose [Inhibitor]: 0, 600 MG/KG BW BY INTRAPERITONEAL INJECTION ON DAYS 13, 14 AND 15 OF AGE THEN 4 G/KG DIET FROM 21 TO 161 DAYS OF AGE (S, Route [Inhibitor]: INTRAPERITONEAL, ORAL, Species: MOUSE, Strain/Sex: C3H/MALE, Target Tissue: Type of Lesion: LIVER: ADENOMA, Dose [Carcinogen]: 4 MG/KG IN TRICAPRYLIN ONCE ON DAY 15 OF AGE, Promoter: NONE USED): 100%, 100%, 0%, not significant

C=C1C[C@H]2[C@@H]3C=C(C)C4=CC(=O)CC[C@]4(C)[C@H]3CC[C@]2(C)[C@@]1(OC(C)=O)C(C)=O
tumour outcome (control, treated, inhibition, significance) (Carcinogen: NONE USED, Dose [Inhibitor]: 0, 0.1 MG/D IN DIET FOR THE DURATION OF STUDY (STUDY DURATION: LIFESPAN), Route [Inhibitor]: ORAL, Species: RAT, Strain/Sex: BDII/FEMALE, Target Tissue: Type of Lesion: UTERUS: ENDOMETRIAL CARCINOMA, Promoter: NONE USED): 17/20 (85%), 0/20 (0%), 100%, not calculated
tumour outcome (control, treated, inhibition, significance) (Carcinogen: NONE USED, Dose [Inhibitor]: 0, 0.2 MG/D IN DIET FOR THE DURATION OF STUDY (STUDY DURATION: LIFESPAN), Route [Inhibitor]: ORAL, Species: RAT, Strain/Sex: BDII/FEMALE, Target Tissue: Type of Lesion: UTERUS: ENDOMETRIAL CARCINOMA, Promoter: NONE USED): 17/20 (85%), 0/19 (0%), 100%, not calculated
tumour outcome (control, treated, inhibition, significance) (Carcinogen: NONE USED, Dose [Inhibitor]: 0, 0.4 MG/D IN DIET FOR THE DURATION OF STUDY (STUDY DURATION: LIFESPAN), Route [Inhibitor]: ORAL, Species: RAT, Strain/Sex: BDII/FEMALE, Target Tissue: Type of Lesion: UTERUS: ENDOMETRIAL CARCINOMA, Promoter: NONE USED): 17/20 (85%), 0/17 (0%), 100%, not calculated

CC(O)CCCCCC(=O)c1ccccc1 (stereo not given)
tumour outcome (control, treated, inhibition, significance) (Carcinogen: 4-(METHYLNITROSAMINO)-1-(3-PYRIDYL)-1-BUTANONE, 64091-91-4, Dose [Inhibitor]: 0, 25 UMOL IN 0.1 ML CORN OIL ONCE 2 HR PRIOR TO CARCINOGEN DOSE (STUDY DURATION: 16 WK), Route [Inhibitor]: GAVAGE, Species: MOUSE, Strain/Sex: STRAIN-A/FEMALE, Target Tissue: Type of Lesion: LUNG: ADENOMA, Dose [Carcinogen]: 10 UMOL IN 0.1 ML SALINE ONCE, Promoter: NONE USED): 100%, 100%, 0%, not significant

CC(C)CC(=O)N[C@H](C(=O)N[C@H](C(=O)N[C@@H](CC(C)C)[C@@H](O)CC(=O)N[C@@H](C)C(=O)N[C@@H](CC(C)C)[C@@H](O)CC(=O)O)C(C)C)C(C)C (Isovaleryl-VV[Sta]A[Sta]-OH)
tumour outcome (control, treated, inhibition, significance) (Carcinogen: 1,2,3,4,5,6-HEXACHLOROCYCLOHEXANE, 319-84-6, Dose [Inhibitor]: 0.1% IN DIET FOR 12 WK FOLLOWING CARCINOGEN TREATMENT REGIMEN (STUDY DURATION: 48 WK), Route [Inhibitor]: ORAL, Species: MOUSE, Strain/Sex: DDY/MALE, Target Tissue: Type of Lesion: LIVER: NODULAR HYPERPLASIA, Dose [Carcinogen]: 500 PPM IN DIET FOR 24 WK, Promoter: NONE USED): 1/13 (8%), 1/12 (8%), 0%, not significant
tumour outcome (control, treated, inhibition, significance) (Carcinogen: N-BUTYL-N-(4-HYDROXY-BUTYL)NITROSAMINE, 3817-11-6, Dose [Inhibitor]: 0.1% IN DIET FOR 32 WK FOLLOWING CARCINOGEN TREATMENT REGIMEN (STUDY DURATION: 40 WK), Route [Inhibitor]: ORAL, Species: MOUSE, Strain/Sex: ICR/MALE, Target Tissue: Type of Lesion: URINARY BLADDER: TUMOR, Dose [Carcinogen]: 0.05% IN DRINKING WATER FOR FIRST 8 WK, Promoter: NONE USED): 6/13 (46%), 8/10 (80%), -74%, not calculated

CCCc1cc(OC)c2c(c1)OCO2
tumour outcome (control, treated, inhibition, significance) (Carcinogen: BENZO[A]PYRENE, 50-32-8, Dose [Inhibitor]: 0, 10 MG SUSPENDED IN 0.3 ML COTTONSEED OIL 3/WK FOR 4 WK ON DAYS OTHER THAN THE CARCINOGEN TREATMENT, 3 ADDITIONAL DOSE, Route [Inhibitor]: GAVAGE, Species: MOUSE, Strain/Sex: STRAIN-A/FEMALE, Target Tissue: Type of Lesion: FORESTOMACH: TUMOR, Dose [Carcinogen]: 1 MG IN 0.3 ML COTTONSEED OIL 2/WK FOR 4 WK, Promoter: NONE USED): 12/17 (71%), 12/19 (63%), 11%, not significant
tumour outcome (control, treated, inhibition, significance) (Carcinogen: BENZO[A]PYRENE, 50-32-8, Dose [Inhibitor]: 0, 10 MG SUSPENDED IN 0.3 ML COTTONSEED OIL 3/WK FOR 4 WK ON DAYS OTHER THAN THE CARCINOGEN TREATMENT, 3 ADDITIONAL DOSE, Route [Inhibitor]: GAVAGE, Species: MOUSE, Strain/Sex: STRAIN-A/FEMALE, Target Tissue: Type of Lesion: LUNG: TUMOR, Dose [Carcinogen]: 1 MG IN 0.3 ML COTTONSEED OIL 2/WK FOR 4 WK, Promoter: NONE USED): 17/17 (100%), 19/19 (100%), 0%, not significant

Nc1ncn([C@H]2C[C@H](O)[C@@H](CO)O2)c(=O)n1
tumour outcome (control, treated, inhibition, significance) (Carcinogen: 4-(METHYLNITROSAMINO)-1-(3-PYRIDIYL)-1-BUTANONE, 64091-91-4, Dose [Inhibitor]: 0, 1 MG/KG 3/WK FOR 12 WK THEN 0, 0.5 MG/KG FOR 12 WK BEGINNING 1 WK PRIOR TO CARCINOGEN TREATMENT (STUDY DURATION: 24 W, Dose [Inhibitor]: 0, 1 MG/KG 3/WK FOR 12 WK THEN 0, 0.5 MG/KG FOR 12 WK BEGINNING 1 WK PRIOR TO CARCINOGEN TREATMENT (STUDY DURATION: 24 W, Route [Inhibitor]: INTRAPERITONEAL, Species: MOUSE, Strain/Sex: C3AF1/MALE, Target Tissue: Type of Lesion: LUNG: TUMOR, Dose [Carcinogen]: 3.9 MG/MOUSE (TOTAL DOSE) ADMINISTERED IN TWO WEEKLY DOSES OF 1.9 TO 2 MG, Promoter: NONE USED): 100%, 77%, 23%, not significant

O=c1oc2ccccc2c(O)c1Cc1c(O)c2ccccc2oc1=O
tumour outcome (control, treated, inhibition, significance) (Carcinogen: 17BETA-ESTRADIOL, 50-28-2, Dose [Inhibitor]: 0, 0.09% IN DIET BEGINNING 5 D POST CARCINOGEN DOSE (STUDY DURATION: 7.5 MO), Route [Inhibitor]: ORAL, Species: HAMSTER, Strain/Sex: SYRIAN/MALE, Target Tissue: Type of Lesion: KIDNEY: TUMOR, Dose [Carcinogen]: 25 MG PELLET REPLACED WITH A SECOND PELLET AFTER 4 MO, Promoter: NONE USED): 13/13 (100%), 7/12 (58%), 42%, p<0.05

CSC(=S)NCc1c[nH]c2ccccc12
tumour outcome (control, treated, inhibition, significance) (Carcinogen: 7,12-DIMETHYLBENZ[A]ANTHRACENE, 57-97-6, Dose [Inhibitor]: 0, 0.5% IN 0.2 ML ACETONE APPLIED 1 HR PRIOR TO PROMOTER DOSE 2/WK FOR 12 WK (STUDY DURATION: 90 D), Route [Inhibitor]: DERMAL, Species: MOUSE, Strain/Sex: CD-1/MALE, Target Tissue: Type of Lesion: SKIN: TUMOR, Dose [Carcinogen]: 50 UG IN 0.2 ML ACETONE ONCE, Promoter: 12-O-TETRADECANOYLPHORBOL-13-ACETATE, 16561-29-8): 95%, 65%, 32%, not significant
tumour outcome (control, treated, inhibition, significance) (Carcinogen: 7,12-DIMETHYLBENZ[A]ANTHRACENE, 57-97-6, Dose [Inhibitor]: 0, 1% IN 0.2 ML ACETONE APPLIED 1 HR PRIOR TO PROMOTER DOSE 2/WK FOR 12 WK (STUDY DURATION: 90 D), Route [Inhibitor]: DERMAL, Species: MOUSE, Strain/Sex: CD-1/MALE, Target Tissue: Type of Lesion: SKIN: TUMOR, Dose [Carcinogen]: 50 UG IN 0.2 ML ACETONE ONCE, Promoter: 12-O-TETRADECANOYLPHORBOL-13-ACETATE, 16561-29-8): 95%, 50%, 50%, p<0.03
tumour outcome (control, treated, inhibition, significance) (Carcinogen: 7,12-DIMETHYLBENZ[A]ANTHRACENE, 57-97-6, Dose [Inhibitor]: 0, 1% IN 0.2 ML ACETONE APPLIED 1 HR PRIOR TO PROMOTER DOSE 2/WK FOR 12 WK BEGINNING 5 D PRIOR TO CARCINOGEN DOSE (STUDY, Route [Inhibitor]: DERMAL, Species: MOUSE, Strain/Sex: CD-1/MALE, Target Tissue: Type of Lesion: SKIN: TUMOR, Dose [Carcinogen]: 50 UG IN 0.2 ML ACETONE ONCE, Promoter: 12-O-TETRADECANOYLPHORBOL-13-ACETATE, 16561-29-8): 95%, 55%, 42%, p<0.03

CC(=O)C1CC2CC1CC2N=C=S (stereo not given)
tumour outcome (control, treated, inhibition, significance) (Carcinogen: 7,12-DIMETHYLBENZ[A]ANTHRACENE, 57-97-6, Dose [Inhibitor]: 0, 100 UMOL/D IN 0.5 ML EMULPHOR EL-620 FOR 5 CONSECUTIVE DAYS BEGINNING AT 47 D OF AGE (STUDY DURATION: 155 D), Route [Inhibitor]: GAVAGE, Species: RAT, Strain/Sex: SPRAGUE-DAWLEY/FEMALE, Target Tissue: Type of Lesion: MAMMARY GLAND: TUMOR, Dose [Carcinogen]: 8 MG IN 1 ML SESAME OIL ONCE AT 50 D OF AGE, Promoter: NONE USED): 17/25 (68%), 8/20 (40%), 41%, not significant
